Test results as given in ChEMBL document CHEMBL1782006, “Discovery of diphenylmethane analogs as anti-bovine diarrhea viral agents” (Bioorg Med Chem Lett, 2009).
pEC50: −log10 of the molar value.

Legend:
[1] = Cytotoxicity in MDBK cells assessed as reduction in cell viability; type: cell-based, Bos taurus; details: cattle
[2] = test system: Bovine viral diarrhea virus 1; assay: Antiviral activity against BVDV1 Nose infected in MDBK cells assessed as inhibition of virus replication-induced cell destruction; type: functional, organism-based; details: Bovine viral diarrhea virus isolates and strains
[3] = Selectivity index, ratio of CC50 for MDBK cells to EC50 for antiviral activity against BVDV1 Nose

Row | SMILES | CC50 [1] [µM] | pEC50 [2] | Ratio CC50/EC50 [3]
1 | CCC(CC)(c1ccc(NCC(O)C(C)(C)C)c(C)c1)c1ccc(OC[C@@H](O)CO)c(C)c1 (stereo partly drawn) | 43 | 4.60 | 1.72
2 | CCC(CC)(c1ccc(O)cc1)c1ccc(O)cc1 | 39 | 5.00 | 3.9
3 | Cc1cc(C2(c3ccc(OCC(=O)C(C)(C)C)c(C)c3)CCCC2)ccc1OCC(=O)C(C)(C)C | > 100 | 4.89 | –
4 | Cc1cc(C(C)(C)c2ccc(OCC(=O)C(C)(C)C)c(C)c2)ccc1OCC(=O)C(C)(C)C | > 100 | 4.92 | –
5 | CCN(CC)C(=O)Oc1ccc(C(CC)(CC)c2ccc(NC(C)=O)c(C)c2)cc1C | 50 | 5.00 | 5
6 | CC[Si](CC)(c1ccc(OCC(=O)C(C)(C)C)cc1)c1ccc(OCC(=O)C(C)(C)C)cc1 | > 100 | 5.21 | –
7 | Cc1cc([Si](C)(C)c2ccc(OCC(=O)C(C)(C)C)c(C)c2)ccc1OCC(=O)C(C)(C)C | > 100 | 4.89 | –
8 | Nc1ccc(C2(c3ccc(O)cc3)CCCCC2)cc1 | 42 | < 4.38 | –
9 | CC[Si](CC)(c1ccc(O)cc1)c1ccc(OCC(=O)C(C)(C)C)cc1 | 46.8 | 5.10 | 5.85
10 | CC[Si](CC)(c1ccc(OCC(=O)C(C)(C)C)c(C)c1)c1ccc(OCC(=O)C(C)(C)C)c(C)c1 | > 100 | 5.08 | –
11 | CCC(CC)(c1ccc(OCC(=O)C(C)(C)C)c(C)c1)c1ccc(N(CC(=O)C(C)(C)C)Cc2ccccc2)c(C)c1 | > 100 | 4.55 | –
12 | CCC(CC)(c1ccc(O)c(C)c1)c1ccc(OCC(=O)C(C)(C)C)c(C)c1 | 5.23 | 5.07 | –
13 | CCC(CC)(c1ccc(NCC(=O)C(C)(C)C)c(C)c1)c1ccc(OCC(=O)C(C)(C)C)c(C)c1 | 82 | 5.05 | 9.21
14 | Cc1cc(C2(c3ccc(OCC(=O)C(C)(C)C)c(C)c3)CCC2)ccc1OCC(=O)C(C)(C)C | > 100 | 5.20 | –
